Legend:
luciferase [1] = experiment: Mouse lung luciferase activity after IV DNA vector delivery; type: in vivo; conditions: mice, day 7
Experimental: Lung was homogenized with 500 ul of 1× Lysis buffer (Promega, Wis.). The homogenate was centrifuged at 3000×g at 4C for 10 min. and the supernatant collected. Luciferase activity was assayed using 20 μl of supernatant and 100 μl of Luciferase reagent for 10 seconds using a GloMax® Luminometer (Promega, Wis.).
In each case, cationic liposome injection was followed two minutes later by IV injection of 40 μg of an mCMV-EF1-luciferase, CPG-free, single cassette, DNA vector. […]

luciferase [2] = experiment: Mouse spleen luciferase levels after IV PEI:EF-1 Luc DNA complexes with drug pre-injection; type: in vivo; conditions: mice; day 1; IP drug two hours prior to IV PEI:DNA (12.5 μg); amlexanox 200 μg, chloroquine 1 mg, SAHA 200 μg, tofacitinib 300 μg per mouse
human factor IX = experiment: Human Factor IX ELISA in mice; conditions: 24 hrs, IP pre-treatment (VPA 2 mg/kg, Theo 30 mg/kg), 1500 nmoles DexP DOTAP SUV, 60 ug factor IX vector, Dex
Experimental: In this Example, three mice were injected per group. […] This was followed two minutes later by a single IV injection of 60 ug of a codon optimized, EF-1-driven single cassette DNA vector encoding the human factor IX cDNA (see constructs in FIGS. 38 and 44). […] Where indicated, animals were also pretreated by IP injection of 2 mg/kg Valproic Acid (VPA) or 30 mg/kg Theophylline (Theo). […] Each mouse was bled as for G-CSF. Blood was collected into tubes containing Potassium EDTA or Sodium Citrate to prevent coagulation and centrifuged to obtain plasma. An AssayPro ELISA specific to human Factor IX was used according to manufacturer's instructions to measure Factor IX expression.

Rituximab = experiment: Serum Rituximab ELISA in mice after sequential injection of Rituximab DNA vector; type: in vivo; conditions: 24 hours, IP pre-treatment (VPA 15 or 2 mg/kg, Theo 30 or 15 mg/kg), 1050 nmoles DexP liposomes, 75 ug DNA, Dex
Experimental: Mice were bled and serum isolated as for G-CSF. Rituximab levels were measured using an Immunoguide ELISA obtained from Eagle Biosciences, and performed according to instructions. […] .
. […] Numbered plasmids (in FIG. 30) were codon-optimized versions of the original, CpG-free but not codon optimized Rituximab DNA sequence.
. […] Thus, significant Rituximab serum levels can be produced by either dual- or single-cassette, 2A peptide-containing DNA vectors.
. Mock-injected mice received LR only without lipid or DNA. Serum levels of Rituximab protein and ALT were assayed 24 hrs later.

human G-CSF = experiment: Serum human G-CSF ELISA in mice after sequential IV cationic liposome then CPG-free DNA vector injection; type: in vivo; conditions: IP 2 hours before and 2 hours after 900 nmol DOTAP SUV then 70 ug DNA, dexamethasone 40 mg/kg, Tofacitinib 15 mg/kg
Experimental: Three to five mice were injected per group.
Each mouse was anesthetized and then bled via the submandibular vein. Serum was then isolated from whole blood and human G-CSF levels measured in pg/ml, as performed strictly according to the manufacturer's specifications, using an R and D systems human G-CSF ELISA.
Five mice were injected per group. […] Serum hG-CSF levels were assessed beginning at day seven after IV injection, and at seven-day intervals thereafter.
Sera were collected from groups of four mice at either day 6 or 14 following sequential, IV injection of 800 nmoles of pure DOTAP MLV cationic liposomes, followed two minutes later by IV injection of 40 μg either an EF1-luciferase—EF1-hGCSF (2 expression cassette) or an EF1-hGCSF (1 expression cassette), CPG-free, single plasmid DNA vector.
Sera were collected from groups of four mice at day 1 following sequential, IV injection of buffer alone (control), 1000 nmoles of pure DOTAP SUV cationic liposomes, alone or co-injected with 1000 nmol of neutral MLV, followed two minutes later by IV injection of 120 μg an EF1-luciferase—EF1-hGCSF (2 expression cassette), CPG-free, single plasmid DNA vector or 1400 nmoles of pure DOTAP SUV cationic liposomes, alone or co-injected with 1000 nmol of neutral MLV, followed two minutes later by IV injection of 100 μg of EF1-luciferase—EF1-hGCSF DNA. […]

[3] = test system: CD20-expressing human Raji B cells; experiment: FACS binding to Raji cells; type: cell-based; conditions: anti-human IgG-PE, serum six weeks after injection
Experimental: In this Example, Raji cells (1 million/sample) were incubated with mouse serum samples or recombinant Rituximab (50 ng/ml) for 1 hr at 4C, in FACS binding buffer containing EDTA and 0.5% BSA. Following washes, samples were incubated with fluorescently labeled secondary antibody (anti-human IgG-PE) for 30 min, washed and analyzed using an Accuri flow cytometer. Between 3500-5000 events were recorded for each sample. The experiment was repeated twice with similar results.

[4] = in vivo; cited from earlier work
[5] = drug with 800 nmoles DOTAP MLV (L-arginine 2 mg/kg, colchicine 0.01 mg/kg, dexamethasone 1 mg/kg) then 40 μg single cassette mCMV-EF1-luciferase
[6] = drug with 800 nmoles DOTAP MLV then 40 μg dual cassette EF1-luciferase—EF1-hGCSF

## N=C(N)NCCC[C@H](N)C(=O)O [L-arginine]
Luciferase [1]; [5]
  luciferase activity in the lung vs DOTAP MLV alone (control): failed to increase gene expression levels
Luciferase [1]; [6]
  luciferase activity in the lung vs DOTAP MLV alone (control): either lower than or comparable to controls

## O=C(CCCCCCC(=O)Nc1ccccc1)NO [SAHA, suberanilohydroxamic acid]
Luciferase [2]
  spleen gene expression (luciferase) levels: increased gene expression levels

## Cn1c(=O)c2[nH]cnc2n(C)c1=O [Theophylline]
Human factor IX
  serum human factor IX levels: significantly higher
Rituximab
  serum Rituximab levels: significantly increased

## CC(C)c1ccc2oc3nc(N)c(C(=O)O)cc3c(=O)c2c1 [amlexanox]
Luciferase [2]
  spleen gene expression (luciferase) levels: increased gene expression levels

## CCN(CC)CCCC(C)Nc1ccnc2cc(Cl)ccc12 (centres unmarked) [chloroquine]
Luciferase [2]
  spleen gene expression (luciferase) levels: increased gene expression levels

## COc1cc2c(c(OC)c1OC)-c1ccc(OC)c(=O)cc1[C@@H](NC(C)=O)CC2 [colchicine]
Luciferase [1]; [5]
  luciferase activity in the lung vs DOTAP MLV alone (control): higher luciferase activity

## CCCc1nn(C)c2c(=O)[nH]c(-c3cc(S(=O)(=O)N4CCN(C)CC4)ccc3OCC)nc12 [sildenafil]
Luciferase [1]; [6]
  luciferase activity in the lung vs DOTAP MLV alone (control): higher luciferase activity

## C[C@@H]1CCN(C(=O)CC#N)C[C@@H]1N(C)c1ncnc2[nH]ccc12 [tofacitinib]
Human G-CSF
  HuG-CSF protein levels: did neither

## CCCC(CCC)C(=O)O [valproic acid]
Human factor IX
  serum human factor IX levels: significantly higher
Rituximab
  serum Rituximab levels: significantly increased

## Recombinant Rituximab: recombinant Rituximab (anti-CD20) protein used as reference
[3]
  Mean Fluorescence Intensity: 5781.87

B1: Neupogen: recombinant human G-CSF protein (protein, UniProt P09919 31-207, looked up)
Granulocyte …: TPLGPASSLPQSFLLKCLEQVRKIQGDGAALQEKLVSECATYKLCHPEELVLLGHSLGIPWAPLSSCPSQALQLAGCLSQLHSGLFLYQGLLQALEGISPELGPTLDTLQLDVADFATTIWQQMEELGMAPALQPTQGAMPAFASAFQRRAGGVLVASHLQSFLEVSYRVLRHLAQP
modifications: filgrastim
[4]
  time for serum hG-CSF levels to return to baseline: approximately 14 hours

Source: patent publication US10905777B2, “Systems and methods for nucleic acid expression in vivo” (DNARx, priority 2015, dated 2021)
